{"source": "ChEMBL document CHEMBL3272150", "about": "“Studies on antianaphylactic agents. 5. Synthesis of 3-(1H-tetrazol-5-yl)chromones, a new series of antiallergic substances” (J Med Chem, 1977)", "key": {"Rattus norvegicus [1]": {"tested_on": "Rattus norvegicus", "assay": "Antiallergic activity in iv dosed Sprague-Dawley rat assessed as inhibition of egg albumin-induced passive cutaneous anaphylaxis administered immediately prior to egg albumin challenge measured after 30 mins by Evan blue dye leakage assay relative to disodium cromoglycate", "type": "functional"}, "Rattus norvegicus [2]": {"tested_on": "Rattus norvegicus", "assay": "Antiallergic activity in po dosed Sprague-Dawley rat assessed as inhibition of egg albumin-induced passive cutaneous anaphylaxis administered 5 mins prior to egg albumin challenge measured after 30 mins by Evan blue dye leakage assay", "type": "functional", "details": "read-out: ID50 (the source's name)"}, "Rattus norvegicus [3]": {"tested_on": "Rattus norvegicus", "assay": "Antiallergic activity in Sprague-Dawley rat assessed as inhibition of egg albumin-induced passive cutaneous anaphylaxis up to 20 mg/kg, iv administered immediately prior to egg albumin challenge measured after 30 mins by Evan blue dye leakage assay", "type": "functional, organism-based", "design": "dose 20 mg/kg"}, "[4]": {"assay": "Dissociation constant, pKa of the compound", "type": "physicochemical"}}, "note": "Calls of active or inactive are those of the source. No cut-off for these calls is given here.", "data": [{"smiles": "O=c1cc(-c2nnn[nH]2)oc2ccccc12", "values": [{"measurement": "fold change (FC)", "setting": "Rattus norvegicus [1]", "result": 1.4}]}, {"smiles": "O=c1c(-c2nnn[nH]2)coc2ccc3ccccc3c12", "values": [{"measurement": "fold change (FC)", "setting": "Rattus norvegicus [1]", "result": 5}, {"measurement": "ED50", "setting": "Rattus norvegicus [2]", "result": 8.5, "unit": "mg/kg"}]}, {"smiles": "Cc1nnc(-c2coc3ccccc3c2=O)o1", "values": [{"measurement": "inhibition", "setting": "Rattus norvegicus [3]", "result": "inactive"}]}, {"smiles": "CC(C)(C)n1nnc(-c2coc3ccccc3c2=O)n1", "values": [{"measurement": "inhibition", "setting": "Rattus norvegicus [3]", "result": "inactive"}]}, {"smiles": "O=c1c(-c2nnn[nH]2)coc2cc(O)ccc12", "values": [{"measurement": "fold change (FC)", "setting": "Rattus norvegicus [1]", "result": 1.1}]}, {"smiles": "O=C(O)c1coc2ccccc2c1=O", "values": [{"measurement": "pKa", "setting": "[4]", "result": 8.85}]}, {"smiles": "CCCc1ccc2occ(-c3nnn[nH]3)c(=O)c2c1", "values": [{"measurement": "fold change (FC)", "setting": "Rattus norvegicus [1]", "result": 3.4}]}, {"smiles": "O=c1c(-c2nnn[nH]2)coc2ccc([N+](=O)[O-])cc12", "values": [{"measurement": "fold change (FC)", "setting": "Rattus norvegicus [1]", "result": 4}]}, {"smiles": "O=C(Cc1nnn[nH]1)c1ccccc1O", "values": [{"measurement": "fold change (FC)", "setting": "Rattus norvegicus [1]", "result": 0.35}]}, {"smiles": "O=c1c(-c2nnn[nH]2)coc2ccc(C3CCCCC3)cc12", "values": [{"measurement": "fold change (FC)", "setting": "Rattus norvegicus [1]", "result": 0.5}]}, {"smiles": "N#Cc1coc2ccccc2c1=O", "values": [{"measurement": "pKa", "setting": "[4]", "result": 5.85}]}, {"smiles": "CCc1ccc2occ(-c3nnn[nH]3)c(=O)c2c1", "values": [{"measurement": "fold change (FC)", "setting": "Rattus norvegicus [1]", "result": 4}, {"measurement": "ED50", "setting": "Rattus norvegicus [2]", "result": 6.9, "unit": "mg/kg"}]}, {"smiles": "CCCCOc1ccc2c(=O)c(-c3nnn[nH]3)coc2c1", "values": [{"measurement": "fold change (FC)", "setting": "Rattus norvegicus [1]", "result": 0.9}]}, {"smiles": "O=c1c(-c2nnn[nH]2)coc2ccc(O)cc12", "values": [{"measurement": "fold change (FC)", "setting": "Rattus norvegicus [1]", "result": 4.5}]}, {"smiles": "Cc1ccc2occ(-c3nnn[nH]3)c(=O)c2c1", "values": [{"measurement": "fold change (FC)", "setting": "Rattus norvegicus [1]", "result": 2.4}, {"measurement": "ED50", "setting": "Rattus norvegicus [2]", "result": 10, "unit": "mg/kg"}]}, {"smiles": "O=c1c(/C=C/c2nnn[nH]2)coc2ccccc12", "values": [{"measurement": "fold change (FC)", "setting": "Rattus norvegicus [1]", "result": 0.3}]}, {"smiles": "Cc1cc(C)c2occ(-c3nnn[nH]3)c(=O)c2c1", "values": [{"measurement": "fold change (FC)", "setting": "Rattus norvegicus [1]", "result": 11.6}, {"measurement": "ED50", "setting": "Rattus norvegicus [2]", "result": 1.25, "unit": "mg/kg"}]}, {"smiles": "COc1ccc2occ(-c3nnn[nH]3)c(=O)c2c1", "values": [{"measurement": "fold change (FC)", "setting": "Rattus norvegicus [1]", "result": 2.2}, {"measurement": "ED50", "setting": "Rattus norvegicus [2]", "result": 7, "unit": "mg/kg"}]}, {"smiles": "CCCCc1ccc2occ(-c3nnn[nH]3)c(=O)c2c1", "values": [{"measurement": "fold change (FC)", "setting": "Rattus norvegicus [1]", "result": 1.8}]}, {"smiles": "CC(C)c1ccc2occ(-c3nnn[nH]3)c(=O)c2c1", "values": [{"measurement": "fold change (FC)", "setting": "Rattus norvegicus [1]", "result": 3.4}, {"measurement": "ED50", "setting": "Rattus norvegicus [2]", "result": 17, "unit": "mg/kg"}]}, {"smiles": "CCCCc1ccc2occ(/C=C/c3nnn[nH]3)c(=O)c2c1", "values": [{"measurement": "fold change (FC)", "setting": "Rattus norvegicus [1]", "result": 0.07}]}, {"smiles": "O=c1c(-c2nnn[nH]2)coc2ccc(Cl)cc12", "values": [{"measurement": "fold change (FC)", "setting": "Rattus norvegicus [1]", "result": 4}]}, {"smiles": "O=c1c(-c2nnn[nH]2)coc2cc(O)c(O)cc12", "values": [{"measurement": "fold change (FC)", "setting": "Rattus norvegicus [1]", "result": 1.8}]}, {"smiles": "Cc1oc2ccccc2c(=O)c1Cc1nnn[nH]1", "values": [{"measurement": "inhibition", "setting": "Rattus norvegicus [3]", "result": "inactive"}]}, {"smiles": "CCCCCCc1ccc2occ(-c3nnn[nH]3)c(=O)c2c1", "values": [{"measurement": "fold change (FC)", "setting": "Rattus norvegicus [1]", "result": 0.6}]}, {"smiles": "Cc1oc2ccccc2c(=O)c1-c1nnn[nH]1", "values": [{"measurement": "fold change (FC)", "setting": "Rattus norvegicus [1]", "result": 0.1}]}, {"smiles": "O=C([O-])c1cc(=O)c2c(OCC(O)COc3cccc4oc(C(=O)[O-])cc(=O)c34)cccc2o1.[Na+].[Na+]", "note": "[CROMOLYN SODIUM]", "values": [{"measurement": "ED50", "setting": "Rattus norvegicus [2]", "result": "> 100", "unit": "mg/kg"}]}, {"smiles": "CN(C)c1ccc2occ(-c3nnn[nH]3)c(=O)c2c1", "values": [{"measurement": "fold change (FC)", "setting": "Rattus norvegicus [1]", "result": 2.3}]}, {"smiles": "CCOC(=O)c1ccc2occ(-c3nnn[nH]3)c(=O)c2c1", "values": [{"measurement": "fold change (FC)", "setting": "Rattus norvegicus [1]", "result": 2.9}]}, {"smiles": "O=c1c(CCc2nnn[nH]2)coc2ccccc12", "values": [{"measurement": "fold change (FC)", "setting": "Rattus norvegicus [1]", "result": 0.07}]}, {"smiles": "O=c1c(-c2nnn[nH]2)coc2c1ccc1ccccc12", "values": [{"measurement": "fold change (FC)", "setting": "Rattus norvegicus [1]", "result": 8.3}, {"measurement": "ED50", "setting": "Rattus norvegicus [2]", "result": 7.4, "unit": "mg/kg"}]}, {"smiles": "O=c1c(-c2nnn[nH]2)coc2ccccc12", "values": [{"measurement": "fold change (FC)", "setting": "Rattus norvegicus [1]", "result": 3.5}, {"measurement": "ED50", "setting": "Rattus norvegicus [2]", "result": 5.3, "unit": "mg/kg"}]}]}
